Experiments:
Type in all cases: functional
[1] = system: HL-60(TB); assay: Growth inhibition of human HL-60(TB) cells after 48 hrs by SRB assay; settings: HL-60, 48 h; for CC50: read-out: LC50 (the source's name)
[2] = system: K562; assay: Growth inhibition of human K562 cells after 48 hrs by SRB assay; settings: K562, 48 h
[3] = system: MOLT-4; assay: Growth inhibition of human MOLT4 cells after 48 hrs by SRB assay; settings: MOLT-4, 48 h; for CC50: read-out: LC50 (the source's name)
[4] = system: RPMI-8226; assay: Growth inhibition of human RPMI8226 cells after 48 hrs by SRB assay; settings: RPMI-8226, 48 h; for CC50: read-out: LC50 (the source's name)
[5] = system: SR; assay: Growth inhibition of human SR cells after 48 hrs by SRB assay
[6] = system: A549; assay: Growth inhibition of human A549 cells after 48 hrs by SRB assay; settings: A549, 48 h
[7] = system: EKVX; assay: Growth inhibition of human EKVX cells after 48 hrs by SRB assay
[8] = system: HOP-62; assay: Growth inhibition of human HOP62 cells after 48 hrs by SRB assay; settings: HOP-62, 48 h
[9] = system: HOP-92; assay: Growth inhibition of human HOP92 cells after 48 hrs by SRB assay; settings: HOP-92, 48 h
[10] = system: NCI-H226; assay: Growth inhibition of human NCI-H226 cells after 48 hrs by SRB assay; settings: NCI-H226, 48 h
[11] = system: NCI-H23; assay: Growth inhibition of human NCI-H23 cells after 48 hrs by SRB assay; settings: NCI-H23, 48 h
[12] = system: NCI-H322M; assay: Growth inhibition of human NCI-H322M cells after 48 hrs by SRB assay
[13] = system: NCI-H460; assay: Growth inhibition of human NCI-H460 cells after 48 hrs by SRB assay; settings: NCI-H460, 48 h
[14] = system: COLO 205; assay: Growth inhibition of human COLO205 cells after 48 hrs by SRB assay; settings: COLO 205, 48 h
[15] = system: HCC 2998; assay: Growth inhibition of human HCC2998 cells after 48 hrs by SRB assay; settings: HCC 2998, 48 h
[16] = system: HCT-116; assay: Growth inhibition of human HCT116 cells after 48 hrs by SRB assay; settings: HCT-116, 48 h
[17] = system: HCT-15; assay: Growth inhibition of human HCT15 cells after 48 hrs by SRB assay; settings: HCT-15, 48 h
[18] = system: M14; assay: Growth inhibition of human M14 cells after 48 hrs by SRB assay; settings: M14, 48 h
[19] = system: SK-MEL-28; assay: Growth inhibition of human SK-MEL-28 cells after 48 hrs by SRB assay; settings: SK-MEL-28, 48 h
[20] = system: SK-MEL-5; assay: Growth inhibition of human SK-MEL-5 cells after 48 hrs by SRB assay; settings: SK-MEL-5, 48 h
[21] = system: UACC-257; assay: Growth inhibition of human UACC257 cells after 48 hrs by SRB assay; settings: UACC-257, 48 h
[22] = system: UACC-62; assay: Growth inhibition of human UACC62 cells after 48 hrs by SRB assay; settings: UACC-62, 48 h
[23] = system: IGROV-1; assay: Growth inhibition of human IGROV1 cells after 48 hrs by SRB assay; settings: IGROV-1, 48 h
[24] = system: OVCAR-3; assay: Growth inhibition of human OVCAR-3 cells after 48 hrs by SRB assay; settings: OVCAR-3, 48 h
[25] = system: OVCAR-4; assay: Growth inhibition of human OVCAR4 cells after 48 hrs by SRB assay; settings: OVCAR-4, 48 h
[26] = system: OVCAR-5; assay: Growth inhibition of human OVCAR5 cells after 48 hrs by SRB assay; settings: OVCAR-5, 48 h
[27] = system: OVCAR-8; assay: Growth inhibition of human OVCAR8 cells after 48 hrs by SRB assay; settings: OVCAR-8, 48 h
[28] = system: SK-OV-3; assay: Growth inhibition of human SKOV3 cells after 48 hrs by SRB assay; settings: SK-OV-3, 48 h
[29] = system: ACHN; assay: Growth inhibition of human ACHN cells after 48 hrs by SRB assay
[30] = system: CAKI-1; assay: Growth inhibition of human Caki1 cells after 48 hrs by SRB assay; settings: CAKI-1, 48 h
[31] = system: RXF 393; assay: Growth inhibition of human […] cells after 48 hrs by SRB assay; settings: RXF 393, 48 h
[32] = system: TK-10; assay: Growth inhibition of human TK10 cells after 48 hrs by SRB assay; settings: TK-10, 48 h
[33] = system: UO-31; assay: Growth inhibition of human UO31 cells after 48 hrs by SRB assay; settings: UO-31, 48 h
[34] = system: DU-145; assay: Growth inhibition of human DU145 cells after 48 hrs by SRB assay; settings: DU-145, 48 h
[35] = system: MCF7; assay: Growth inhibition of human MCF7 cells after 48 hrs by SRB assay; settings: MCF7, 48 h
[36] = system: NCI/ADR-RES; assay: Growth inhibition of human NCI/ADR-RES cells after 48 hrs by SRB assay
[37] = system: MDA-MB-231; assay: Growth inhibition of human MDA-MB-231 cells after 48 hrs by SRB assay; settings: MDA-MB-231, 48 h
[38] = Growth inhibition of human Hs 578T cells after 48 hrs by SRB assay
[39] = system: MDA-MB-435; assay: Growth inhibition of human MDA-MB-435 cells after 48 hrs by SRB assay; settings: MDA-MB-435, 48 h
[40] = system: KM12; assay: Growth inhibition of human KM12 cells after 48 hrs by SRB assay; settings: KM12, 48 h
[41] = system: SW-620; assay: Growth inhibition of human SW620 cells after 48 hrs by SRB assay; settings: SW-620, 48 h
[42] = system: SF-268; assay: Growth inhibition of human SF268 cells after 48 hrs by SRB assay; settings: SF-268, 48 h
[43] = system: SF-295; assay: Growth inhibition of human SF295 cells after 48 hrs by SRB assay; settings: SF-295, 48 h
[44] = system: SF-539; assay: Growth inhibition of human SF539 cells after 48 hrs by SRB assay; settings: SF-539, 48 h
[45] = system: U-251; assay: Growth inhibition of human U251 cells after 48 hrs by SRB assay; settings: U-251, 48 h
[46] = read-out: LC50 (the source's name)

For `CCCCOc1ccc(NC(=O)n2nc(N)c3ccccc32)cc1`, the GI50 [1] was 2230 nM, the TGI [1] was 30.4 µM and the CC50 [1] was greater than 100 µM. It also gave a GI50 [2] of 15.9 µM, a GI50 [3] of 4480 nM and a TGI [3] of 46.2 µM. For the same molecule, the CC50 [3] was greater than 100 µM, the GI50 [4] was 2720 nM and the TGI [4] was 30.8 µM. For the same molecule, the CC50 [4] was greater than 100 µM, the GI50 [5] was 16 µM and the GI50 [6] was 23.5 µM. It also gave a GI50 [7] of 13.3 µM, a GI50 [8] of 20.8 µM and a GI50 [9] of 18.6 µM. It also gave a GI50 [10] of 21.2 µM, a GI50 [11] of 19.4 µM and a GI50 [12] of 20.6 µM. For the same molecule, the GI50 [13] was 15.7 µM, the GI50 [14] was 13.9 µM and the GI50 [15] was 19 µM. For the same molecule, the GI50 [16] was 19.9 µM, the GI50 [17] was 15.5 µM and the GI50 [18] was 18.6 µM. For the same molecule, the GI50 [19] was 32.6 µM, the GI50 [20] was 15.2 µM and the GI50 [21] was 29.2 µM. The GI50 [22] was 14.7 µM, the GI50 [23] was 35.5 µM and the GI50 [24] was 18.8 µM. The GI50 [25] was 30.7 µM, the GI50 [26] was 20 µM and the GI50 [27] was 35.9 µM. The GI50 [28] was 44 µM, the GI50 [29] was 22.8 µM and the GI50 [30] was 28.3 µM. The GI50 [31] was 29.6 µM, the GI50 [32] was 24.2 µM and the GI50 [33] was 17.5 µM. It also gave a GI50 [34] of 25 µM, a GI50 [35] of 14.5 µM and a GI50 [36] of 23.7 µM. For the same molecule, the GI50 [37] was 13.8 µM, the GI50 [38] was 20.2 µM and the GI50 [39] was 19.1 µM. The GI50 [40] was 11.3 µM, the GI50 [41] was 18.3 µM and the GI50 [42] was 25.8 µM. It also gave a GI50 [43] of 21.7 µM, a GI50 [44] of 17.8 µM and a GI50 [45] of 30.5 µM.

`Nc1nn(C(=O)Nc2ccc(Cc3ccccc3)cc2)c2ccccc12` showed a GI50 [1] of 466 nM, a TGI [1] of 15.2 µM and a CC50 [1] of 54.9 µM. For the same molecule, the GI50 [2] was 1.2 µM, the LC50 (concentration killing 50% of cells) [2] was greater than 100 µM and the TGI [2] was 33.8 µM. It also gave a GI50 [3] of 636 nM, a TGI [3] of 20.4 µM and a CC50 [3] greater than 100 µM. It also gave a GI50 [4] of 1860 nM, a TGI [4] of 25.8 µM and a CC50 [4] of 84 µM. It also gave a GI50 [5] of 0.0153 µM, a TGI [5] of 82.2 µM and a CC50 [5, 46] of 34.8 µM. For the same molecule, the GI50 [6] was 12.9 µM, the GI50 [7] was 11.2 µM and the GI50 [8] was 13.7 µM. The GI50 [9] was 14.2 µM, the GI50 [10] was 13.5 µM and the GI50 [11] was 16.8 µM. The GI50 [12] was 27.8 µM, the GI50 [13] was 0.408 µM and the TGI [13] was 13 µM. It also gave a CC50 [13, 46] of 84.6 µM, a GI50 [14] of 13.4 µM and a GI50 [15] of 4.27 µM. For the same molecule, the GI50 [16] was 7.03 µM, the GI50 [17] was 1.08 µM and the TGI [17] was greater than 100 µM. For the same molecule, the CC50 [17, 46] was greater than 100 µM, the GI50 [18] was 0.772 µM and the TGI [18] was greater than 100 µM. It also gave a CC50 [18, 46] greater than 100 µM, a GI50 [19] of 11.5 µM and a GI50 [20] of 2.22 µM. The TGI [20] was 8.64 µM, the CC50 [20, 46] was 34.3 µM and the GI50 [21] was 10 µM. For the same molecule, the GI50 [22] was 0.353 µM, the TGI [22] was greater than 100 µM and the CC50 [22, 46] was greater than 100 µM. For the same molecule, the GI50 [23] was 6.98 µM, the GI50 [24] was 6.23 µM and the GI50 [25] was 10.7 µM. The GI50 [26] was 31.3 µM, the GI50 [27] was 21.9 µM and the GI50 [28] was 36.9 µM. The GI50 [29] was 1.69 µM, the TGI [29] was 33.4 µM and the CC50 [29, 46] was greater than 100 µM. For the same molecule, the GI50 [30] was 21.1 µM, the GI50 [31] was 22.2 µM and the GI50 [32] was 27.2 µM. It also gave a GI50 [33] of 0.347 µM, a TGI [33] greater than 100 µM and a CC50 [33, 46] greater than 100 µM. For the same molecule, the GI50 [34] was 1.02 µM, the TGI [34] was 28.3 µM and the CC50 [34, 46] was greater than 100 µM. The GI50 [35] was 0.555 µM, the TGI [35] was 8.82 µM and the CC50 [35, 46] was 89.1 µM. For the same molecule, the GI50 [36] was 7.87 µM, the GI50 [37] was 0.847 µM and the TGI [37] was 43.9 µM. It also gave a CC50 [37, 46] greater than 100 µM, a GI50 [38] of 17.2 µM and a GI50 [39] of 2.82 µM. It also gave a TGI [39] greater than 100 µM, a CC50 [39, 46] greater than 100 µM and a GI50 [40] of 2.94 µM. For the same molecule, the TGI [40] was greater than 100 µM, the CC50 [40, 46] was greater than 100 µM and the GI50 [41] was 3.62 µM. The GI50 [42] was 4.66 µM, the GI50 [43] was 0.53 µM and the TGI [43] was greater than 100 µM. The CC50 [43, 46] was greater than 100 µM, the GI50 [44] was 0.495 µM and the TGI [44] was 5.36 µM. The CC50 [44, 46] was greater than 100 µM and the GI50 [45] was 13.9 µM.

Source: ChEMBL document CHEMBL1152860, “Synthesis and antiproliferative activity of 3-amino-N-phenyl-1H-indazole-1-carboxamides” (2009)
